{"source": "paper PMC10743388", "about": "“Jacalin-Curcumin Complex Sensitizes the Breast Cancer MDA-MB-231 Cell Line” (International Journal of Molecular Sciences, 2023)", "target": "T1, jacalin (Artocarpus integer, UniProt P18670+P18671)", "T1 construct": "native tetrameric lectin isolated from jackfruit seeds; labelled with Red-NHS 2nd Generation (Alexa Fluor 647) for MST", "T1 sequence (P18670 whole entry)": "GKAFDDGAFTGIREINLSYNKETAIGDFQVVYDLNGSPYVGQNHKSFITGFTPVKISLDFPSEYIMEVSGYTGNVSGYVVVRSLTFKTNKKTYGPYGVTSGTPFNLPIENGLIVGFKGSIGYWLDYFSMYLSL", "T1 sequence (P18671 whole entry)": "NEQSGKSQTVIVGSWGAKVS", "test": "microscale thermophoresis with labelled jacalin; steady-state fluorescence titration also gave KD […]", "assay_type": "binding"}
{"smiles": "COc1cc(/C=C/C(=O)CC(=O)/C=C/c2ccc(O)c(OC)c2)ccc1O", "note": "[curcumin]", "values": [{"measurement": "Kd", "result": 450, "unit": "nM"}]}
